From patent US20070149446A1, “Tamandarin analogs and fragments thereof and methods of making and using” (The Trustees of the University of Pennsylvania Center for …, priority 2003, published 2007)
Where two headings read alike, the source gives them in different places.

Details: amide bond, 25.0 °C, 17.0 h

`COc1ccc(C[C@H]2C(=O)O[C@H](C)[C@H](NC(=O)OC(C)(C)C)C(=O)N[C@H](C(C)C)[C@@H](O)CC(=O)O[C@@H](C(C)C)C(=O)N[C@@H](CC(C)C)C(=O)N(C)[C@@H](C)C(=O)N2C)cc1` showed a ring closure, yield of all isomers (from CN[C@@H](Cc1ccc(OC)cc1)C(=O)O[C@H](C)[C@H](NC(=O)OC(C)(C)C)C(=O)N[C@H](C(C)C)[C@@H](O)CC(=O)O[C@H](C(=O)N[C@@H](CC(C)C)C(=O)N(C)[C@@H](C)C(=O)O)C(C)C, HATU/NMM, CH3CN, 4.8 mM) of 48%.
`COc1ccc(C[C@H]2C(=O)OC[C@H](NC(=O)OC(C)(C)C)C(=O)N[C@H](C(C)C)[C@@H](O)CC(=O)O[C@@H](C(C)C)C(=O)N[C@@H](CC(C)C)C(=O)N3CCC[C@H]3C(=O)N2C)cc1` gave a ring closure, yield of all isomers (from CN[C@@H](Cc1ccc(OC)cc1)C(=O)OC[C@H](NC(=O)OC(C)(C)C)C(=O)N[C@H](C(C)C)[C@@H](O)CC(=O)O[C@H](C(=O)N[C@@H](CC(C)C)C(=O)N1CCC[C@H]1C(=O)O)C(C)C, HATU/NMM, CH3CN, 5.7 mM) of 89%.
For `CC(C)C[C@@H]1NC(=O)[C@H](C(C)C)OC(=O)C[C@H](O[Si](C(C)C)(C(C)C)C(C)C)[C@@H](C(C)C)NC(=O)[C@@H](NC(=O)OC(C)(C)C)[C@@H](C)OC(=O)[C@H](Cc2ccccc2)N(C)C(=O)[C@@H]2CCCN2C1=O`, the ring closure, yield of all isomers (from CC(C)C[C@H](NC(=O)[C@@H](OC(=O)C[C@H](O[Si](C(C)C)(C(C)C)C(C)C)[C@H](N)C(C)C)C(C)C)C(=O)N1CCC[C@H]1C(=O)N(C)[C@@H](Cc1ccccc1)C(=O)O[C@H](C)[C@H](NC(=O)OC(C)(C)C)C(=O)O, HATU/DIEA, DMF, 8.9 mM, 3 steps) was 15%.
